In patent publication US9115120B2, “Heterocyclic modulators of HIF activity for treatment of disease” (Board of Regents, The University of Texas System, priority 2012, dated 2015):
Counter-ions that a name gives are not always drawn.

Each compound was assayed on 293T-HRE-GFP-luc cells (assay: Cell-Based Reporter Assay for IC50 Determinations). Conditions: 30 min normoxia then 6 hrs hypoxia (1% O2), luminescence, four-parameter logistic fit, read-out: Activity (IC50, HRE luciferase reporter).
Experimental: Cell-Based Reporter Assay for IC50 Determinations
293T-HRE-GFP-luc cells were routinely maintained in DMEM media (high glucose version with GlutaMAX and HEPES, Gibco, catalog #10564) supplemented with 10% fetal bovine serum and 2 μg/mL puromycin (Invitrogen, catalog #A11138-03) using a humidified incubator (normoxia conditions consisting of 37° C., 5% CO2 and ambient O2).
In preparation for the reporter assay, cells were harvested and resuspended in DMEM media (high glucose version with GlutaMAX and HEPES) supplemented with 10% fetal bovine serum. Cells were inoculated into 384-well white Culturplates (Perkin Elmer catalog #6007680) at a density of 12,000 cells/well in a volume of […]. The microplates were incubated overnight (approximately 17-19 hours) at 37° C. with 5% CO2 and ambient O2. Stock solutions of the test compounds were prepared in DMSO (Sigma, Catalog #D2650) and serially diluted 1:3 using DMSO. Compounds were additionally diluted (1:50) with culturemedium and 10 µL were added per well to the Culturplate. Following a 30 min. incubation under normoxia conditions, the plates were incubated in hypoxia for 6 hrs. (37° C., 5% CO2 and 1% O2). Steadylite Plus (Perkin Elmer, catalog #6016751) was then added ([…]), the plates were mixed on an orbital shaker at room temperature in the dark for 15 min., and luminescence was measured using an Envision plate reader (Perkin Elmer). IC50 values were calculated using a four-parameter logistic curve fit. Results are shown below in Table 2; ND indicates no data.

Row | SMILES | IC50 [nM]
1 | CN1CCN(c2cc(Cc3nc(-c4nc(-c5ccc(OC(F)(F)F)cc5)no4)cn3C)ccn2)CC1 [Example 10, 5-(1-Methyl-2-((2-(4-methylpiperazin-1-yl)pyridin-4-yl)methyl)-1H-imidazol-4-yl)-3-(4-(trifluoromethoxy)phenyl)-1,2,4-oxadiazole] | < 100
2 | Cc1oc(-c2nc(-c3ccc(OC(F)(F)F)cc3)no2)nc1Cc1cccc(N2CCOCC2)c1 [Example 11, 4-(3-((5-Methyl-2-(3-(4-(trifluoromethoxy)phenyl)-1,2,4-oxadiazol-5-yl)oxazol-4-yl)methyl)phenyl)morpholine] | < 100
3 | Cc1oc(-c2nc(-c3ccc(OC(F)(F)F)cc3)no2)nc1Cc1cccc(N2CCCCC2)c1 [Example 13] | < 100
4 | Cc1nc(-c2nc(-c3ccc(OC(F)(F)F)cc3)no2)oc1Cc1cccc(Br)c1 [Example 1, 5-(5-(3-Bromobenzyl)-4-methyloxazol-2-yl)-3-(4-(trifluoromethoxy)phenyl)-1,2,4-oxadiazole] | 1000 to 10000
5 | Cc1nc(-c2nc(-c3ccccc3)co2)sc1Cc1cccc(N2CCN(C)CC2)c1 [Example 3, 2-(4-Methyl-5-(3-(4-methylpiperazin-1-yl)benzyl)thiazol-2-yl)-4-phenyloxazole] | 1000 to 10000
6 | Cc1oc(-c2nc(-c3ccc(OC(F)(F)F)cc3)no2)nc1Cc1cccc(Br)c1 [Example 4, 5-(4-(3-Bromobenzyl)-5-methyloxazol-2-yl)-3-(4-(trifluoromethoxy)phenyl)-1,2,4-oxadiazole] | 1000 to 10000
7 | Cc1nc(-c2nc(-c3ccc(OC(F)(F)F)cc3)no2)oc1Cc1cccc(N2CCN(C)CC2)c1 [Example 7, 1-Methyl-4-(3-((4-methyl-2-(3-(4-(trifluoromethoxy)phenyl)-1,2,4-oxadiazol-5-yl)oxazol-5-yl)methyl)phenyl)piperazin-1-ium trifluoroacetate] | < 100
8 | Cc1oc(-c2nc(-c3ccc(OC(F)(F)F)cc3)no2)nc1Cc1cccc(N2CCN(C)CC2)c1 [Example 5, 1-methyl-4-(3-((5-methyl-2-(3-(4-(trifluoromethoxy)phenyl)-1,2,4-oxadiazol-5-yl)oxazol-4-yl)methyl)phenyl)piperazin-1-ium trifluoroacetate] | < 100
9 | Cc1nc(-c2nc(-c3ccc(OC(F)(F)F)cc3)no2)sc1Cc1cccc(N2CCN(C)CC2)c1 [Example 2, 5-(4-Methyl-5-(3-(4-methylpiperazin-1-yl)benzyl)thiazol-2-yl)-3-(4-(trifluoromethoxy)phenyl)-1,2,4-oxadiazole] | < 100
10 | CN1CCN(c2cc(Cc3nc(-c4nc(-c5ccc(OC(F)(F)F)cc5)no4)nn3C)ccn2)CC1 [Example 9, 1-Methyl-4-(4-((1-methyl-3-(3-(4-(trifluoromethoxy)phenyl)-1,2,4-oxadiazol-5-yl)-1H-1,2,4-triazol-5-yl)methyl)pyridin-2-yl)piperazin-1-ium formate] | < 100
11 | Cc1oc(-c2nc(-c3ccc(OC(F)(F)F)cc3)no2)nc1Cc1cccc(N(C)C)c1 [Example 14, N,N-dimethyl-3-((5-methyl-2-(3-(4-(trifluoromethoxy)phenyl)-1,2,4-oxadiazol-5-yl)oxazol-4-yl)methyl)aniline] | < 100
12 | Cn1nc(-c2nc(-c3ccc(OC(F)(F)F)cc3)no2)nc1Cc1ccnc(N2CCNCC2)c1 [Example 8, 4-(4-((1-Methyl-3-(3-(4-(trifluoromethoxy)phenyl)-1,2,4-oxadiazol-5-yl)-1H-1,2,4-triazol-5-yl)methyl)pyridin-2-yl)piperazin-1-ium formate] | < 100
13 | Cc1sc(-c2nc(-c3ccc(OC(F)(F)F)cc3)no2)nc1Cc1cccc(N2CCN(C)CC2)c1 [Example 6, 1-methyl-4-(3-((5-methyl-2-(3-(4-(trifluoromethoxy)phenyl)-1,2,4-oxadiazol-5-yl)thiazol-4-yl)methyl)phenyl)piperazin-1-ium trifluoroacetate] | < 100
14 | Cn1cc(-c2nc(-c3ccc(OC(F)(F)F)cc3)no2)nc1Cc1ccnc(N2CCNCC2)c1 [Example 12, 4-(4-((1-methyl-4-(3-(4-(trifluoro-methoxy)phenyl)-1,2,4-oxadiazol-5-yl)-1H-imidazol-2-yl)methyl)pyridin-2-yl)piperazin-1-ium formate] | 1000 to 10000
